Read-outs that look alike come from different tables or passages of the source.
Experiments:
Assay in all cases: qHTS cell viability (CellTiter-Glo, 72 h; primary and follow-up small molecule screen)
Assay type in all cases: cell-based, human
MCC26 cells (VN-MCC) = test system: MCC26 cells (VN-MCC)
MKL-1 cells (VP-MCC) = test system: MKL-1 cells (VP-MCC)
MCC13 cells (VN-MCC) = test system: MCC13 cells (VN-MCC)
MKL-2 cells (VP-MCC) = test system: MKL-2 cells (VP-MCC)
UISO cells (VN-MCC) = test system: UISO cells (VN-MCC)
WAGA cells (VP-MCC) = test system: WAGA cells (VP-MCC)
[1] = follow-up screen, MCC26, replicate 1
[2] = follow-up screen, MCC26, replicate 2
[3] = follow-up screen, MCC26, replicate 3
[4] = follow-up screen, MKL-1, replicate 1
[5] = follow-up screen, MKL-1, replicate 2
[6] = follow-up screen, MKL-1, replicate 3
[7] = follow-up screen, MCC13, replicate 1
[8] = follow-up screen, MCC13, replicate 2
[9] = follow-up screen, MCC13, replicate 3
[10] = follow-up screen, MKL-2, replicate 1
[11] = follow-up screen, MKL-2, replicate 2
[12] = follow-up screen, MKL-2, replicate 3
[13] = follow-up screen, UISO, replicate 1
[14] = follow-up screen, UISO, replicate 2
[15] = follow-up screen, UISO, replicate 3
[16] = follow-up screen, WAGA, replicate 1
[17] = follow-up screen, WAGA, replicate 2
[18] = follow-up screen, WAGA, replicate 3

Structure (SMILES)	Area under the dose-response curve (AUC) MCC26 Replicate 1 (MCC26 cells (VN-MCC); [1])	Area under the dose-response curve (AUC) MCC26 Replicate 2 (MCC26 cells (VN-MCC); [2])	Area under the dose-response curve (AUC) MCC26 Replicate 3 (MCC26 cells (VN-MCC); [3])	Area under the dose-response curve (AUC) MKL-1 Replicate 1 (MKL-1 cells (VP-MCC); [4])	Area under the dose-response curve (AUC) MKL-1 Replicate 2 (MKL-1 cells (VP-MCC); [5])	Area under the dose-response curve (AUC) MKL-1 Replicate 3 (MKL-1 cells (VP-MCC); [6])	Area under the dose-response curve (AUC) MCC13 Replicate 1 (MCC13 cells (VN-MCC); [7])	Area under the dose-response curve (AUC) MCC13 Replicate 2 (MCC13 cells (VN-MCC); [8])	Area under the dose-response curve (AUC) MCC13 Replicate 3 (MCC13 cells (VN-MCC); [9])	Area under the dose-response curve (AUC) MKL-2 Replicate 1 (MKL-2 cells (VP-MCC); [10])	Area under the dose-response curve (AUC) MKL-2 Replicate 2 (MKL-2 cells (VP-MCC); [11])	Area under the dose-response curve (AUC) MKL-2 Replicate 3 (MKL-2 cells (VP-MCC); [12])	Area under the dose-response curve (AUC) UISO Replicate 1 (UISO cells (VN-MCC); [13])	Area under the dose-response curve (AUC) UISO Replicate 2 (UISO cells (VN-MCC); [14])	Area under the dose-response curve (AUC) UISO Replicate 3 (UISO cells (VN-MCC); [15])	Area under the dose-response curve (AUC) WAGA Replicate 1 (WAGA cells (VP-MCC); [16])	Area under the dose-response curve (AUC) WAGA Replicate 2 (WAGA cells (VP-MCC); [17])	Area under the dose-response curve (AUC) WAGA Replicate 3 (WAGA cells (VP-MCC); [18])	Area under the dose-response curve (AUC) MCC26 Replicate 1 (MCC26 cells (VN-MCC))	Area under the dose-response curve (AUC) MCC26 Replicate 2 (MCC26 cells (VN-MCC))	other results
COc1ccc([C@]2(C#N)CC[C@@H](C(=O)O)CC2)cc1OC1CCCC1 [Cilomilast]	421.1	410.0	436.1	459.2	478.6	483.6	465.9	445.9	491.5	473.7	471.8	486.7	447.9	471.9	485.5	477.6	504.5	496.1			
Nc1nc(Cl)nc2c1ncn2[C@@H]1O[C@H](CO)[C@@H](O)[C@@H]1F [Clofarabine]	347.1	310.6	353.8	270.1	265.5	283.6	326.5	337.3	347.1	314.2	343.5	397.2	305.8	296.3	317.2	261.2	248.1	263.5			
C[C@H]1CCC/C=C/[C@@H]2C[C@H](O)C[C@H]2[C@H](O)/C=C/C(=O)O1 [Cyanein]	231.7	265.8	194.4	208.9	220.0	232.6	216.1	230.2	238.1	238.6	217.1	214.7	206.3	227.9	213.5	224.1	259.2	236.6			
CC(=O)C1=C(O)[C@@H]2[C@H]3c4c[nH]c5cccc(c45)C[C@H]3C(C)(C)N2C1=O [Cyclopiazonic acid]																			467.3	434.2	Area under the dose-response curve (AUC) MCC26 Replicate 3 (MCC26 cells (VN-MCC)): 474.3; Area under the dose-response curve (AUC) MKL-1 Replicate 1 (MKL-1 cells (VP-MCC)): 549.5; Area under the dose-response curve (AUC) MKL-1 Replicate 2 (MKL-1 cells (VP-MCC)): 470.8; Area under the dose-response curve (AUC) MKL-1 Replicate 3 (MKL-1 cells (VP-MCC)): 482.5; Area under the dose-response curve (AUC) MCC13 Replicate 1 (MCC13 cells (VN-MCC)): 495.4; Area under the dose-response curve (AUC) MCC13 Replicate 2 (MCC13 cells (VN-MCC)): 488.6; Area under the dose-response curve (AUC) MCC13 Replicate 3 (MCC13 cells (VN-MCC)): 449.6; Area under the dose-response curve (AUC) MKL-2 Replicate 1 (MKL-2 cells (VP-MCC)): 490.7; Area under the dose-response curve (AUC) MKL-2 Replicate 2 (MKL-2 cells (VP-MCC)): 497.0; Area under the dose-response curve (AUC) MKL-2 Replicate 3 (MKL-2 cells (VP-MCC)): 473.0; Area under the dose-response curve (AUC) UISO Replicate 1 (UISO cells (VN-MCC)): 472.8; Area under the dose-response curve (AUC) UISO Replicate 2 (UISO cells (VN-MCC)): 458.0; Area under the dose-response curve (AUC) UISO Replicate 3 (UISO cells (VN-MCC)): 445.8; Area under the dose-response curve (AUC) WAGA Replicate 1 (WAGA cells (VP-MCC)): 561.2; Area under the dose-response curve (AUC) WAGA Replicate 2 (WAGA cells (VP-MCC)): 524.5; Area under the dose-response curve (AUC) WAGA Replicate 3 (WAGA cells (VP-MCC)): 501.8
COc1cccc2c1C(=O)c1c(O)c3c(c(O)c1C2=O)C[C@@](O)(C(C)=O)C[C@@H]3O[C@H]1C[C@H](N)[C@H](O)[C@H](C)O1 [Daunorubicin]																			309.1	298.6	Area under the dose-response curve (AUC) MCC26 Replicate 3 (MCC26 cells (VN-MCC)): 273.9; Area under the dose-response curve (AUC) MKL-1 Replicate 1 (MKL-1 cells (VP-MCC)): 228.6; Area under the dose-response curve (AUC) MKL-1 Replicate 2 (MKL-1 cells (VP-MCC)): 217.7; Area under the dose-response curve (AUC) MKL-1 Replicate 3 (MKL-1 cells (VP-MCC)): 240.0; Area under the dose-response curve (AUC) MCC13 Replicate 1 (MCC13 cells (VN-MCC)): 326.2; Area under the dose-response curve (AUC) MCC13 Replicate 2 (MCC13 cells (VN-MCC)): 316.0; Area under the dose-response curve (AUC) MCC13 Replicate 3 (MCC13 cells (VN-MCC)): 313.0; Area under the dose-response curve (AUC) MKL-2 Replicate 1 (MKL-2 cells (VP-MCC)): 202.9; Area under the dose-response curve (AUC) MKL-2 Replicate 2 (MKL-2 cells (VP-MCC)): 215.3; Area under the dose-response curve (AUC) MKL-2 Replicate 3 (MKL-2 cells (VP-MCC)): 253.2; Area under the dose-response curve (AUC) UISO Replicate 1 (UISO cells (VN-MCC)): 226.5; Area under the dose-response curve (AUC) UISO Replicate 2 (UISO cells (VN-MCC)): 238.3; Area under the dose-response curve (AUC) UISO Replicate 3 (UISO cells (VN-MCC)): 225.1; Area under the dose-response curve (AUC) WAGA Replicate 1 (WAGA cells (VP-MCC)): 254.8; Area under the dose-response curve (AUC) WAGA Replicate 2 (WAGA cells (VP-MCC)): 263.7; Area under the dose-response curve (AUC) WAGA Replicate 3 (WAGA cells (VP-MCC)): 266.2

From article PMC11822212, “High-throughput screening identifies Aurora kinase B as a critical therapeutic target for Merkel cell carcinoma” (Nature Communications, 2025)
